Experimental data from article PMC10489938, “Developing an Amide-Spacered Triterpenoid Rhodamine Hybrid of Nano-Molar Cytotoxicity Combined with Excellent Tumor Cell/Non-Tumor Cell Selectivity” (Molecules, 2023).
Like-named read-outs stand apart in the source and are kept apart here.

Legend:
[1] = system: HT29 (colorectal carcinoma); test: SRB cytotoxicity assay, HT29; assay type: cell-based, human; settings: Homo sapiens, HT-29, SRB assay, 72 h of treatment, cut-off 30 μM, read-out: Cytotoxicity (EC50) HT29
Procedure: (§1) Sulforhodamine (SRB) assays were performed to evaluate the cytotoxicity of the compounds. First, the cytotoxicity of the different rhodamines was determined; the results of these assays are compiled in Table 1 and Table 2 and depicted in Figure 1.
(§2) Experimental equipment: as previously described biological assays were performed as previously reported employing cell lines obtained from the Department of Oncology [Martin-Luther-University Halle Wittenberg; they were bought from ATCC [2, 4, 7]]. Rhodamine 101 B, as well as asiatic acid, were obtained from local vendors and used as received.
(§3) For the SRB assay and staining experiments: as previously described.

[2] = SRB cytotoxicity assay, NIH 3T3; assay type: cell-based, murine; settings: mouse, NIH 3T3 non-malignant fibroblasts, cut-off 30 μM
Procedure: as §1, §2, §3

[3] = system: MCF7 (breast adenocarcinoma); test: SRB cytotoxicity assay, MCF7; assay type: cell-based, human; settings: Homo sapiens, MCF7, SRB assay, 72 h of treatment, cut-off 30 μM, read-out: Cytotoxicity (EC50) MCF7
Procedure: as §1, §2, §3

[4] = system: A2780 (ovarian carcinoma); test: SRB cytotoxicity assay, A2780; assay type: cell-based, human; settings: Homo sapiens, A2780, SRB assay, 72 h of treatment, cut-off 30 μM, read-out: Cytotoxicity (EC50) A2780
Procedure: as §1, §2, §3

A375 (melanoma) = test: SRB cytotoxicity assay, A375; assay type: cell-based, human; settings: Homo sapiens, A-375, SRB assay, 72 h of treatment, cut-off 30 μM, read-out: Cytotoxicity (EC50) A375
Procedure: as §1, §2, §3

[5] = system: HeLa (cervical adenocarcinoma); test: SRB cytotoxicity assay, HeLa; assay type: cell-based, human; settings: Homo sapiens, HeLa, SRB assay, 72 h of treatment, cut-off 30 μM, read-out: Cytotoxicity (EC50) HeLa
Procedure: as §1, §2, §3

Structure (SMILES)	EC50 ([1]; Table 1) [nM]	EC50 at 72 h ([2]; Table 1, 72 h of treatment) [nM]	EC50 ([3]; Table 1) [nM]	EC50 ([4]; Table 1) [nM]	EC50 (A375 (melanoma); Table 1) [nM]	EC50 ([5]; Table 1) [nM]	EC50 (A375 (melanoma); Table 2) [nM]	EC50 ([1]; Table 2) [nM]	EC50 at 72 h ([2]; Table 2, 72 h of treatment) [nM]	EC50 ([3]; Table 2) [nM]	EC50 ([4]; Table 2) [nM]	EC50 ([5]; Table 2) [nM]
COc1cccc2c1C(=O)c1c(O)c3c(c(O)c1C2=O)C[C@@](O)(C(=O)CO)C[C@@H]3O[C@H]1C[C@H](N)[C@H](O)[C@H](C)O1 [DX, doxorubicin, reference compound]	900 ± 200	11900 ± 1300	1100 ± 300	20 ± 10	–	–	–	–	–	–	–	–
CCCN(CCC)c1ccc2c(-c3ccccc3C(=O)O)c3ccc(=[N+](CCC)CCC)cc-3oc2c1 [Rh3, reference compound]	9300 ± 400	12000 ± 700	6400 ± 400	6700 ± 700	8200 ± 200	8000 ± 700	–	–	–	–	–	–
CCCCN(CCCC)c1ccc2c(-c3ccccc3C(=O)O)c3ccc(=[N+](CCCC)CCCC)cc-3oc2c1 [Rh4, reference compound]	4900 ± 300	4300 ± 100	3080 ± 60	3400 ± 100	4300 ± 100	4300 ± 300	–	–	–	–	–	–
O=C(O)c1ccccc1C1=c2cc3c4c(c2Oc2c1cc1c5c2CCCN5CCC1)CCC[N+]=4CCC3 [Rh5, rhodamine 101, reference compound]	18500 ± 1800	11900 ± 1300	8200 ± 800	8000 ± 1500	11200 ± 1800	11800 ± 1100	–	–	–	–	–	–
CC(=O)OC[C@@]1(C)C2CC[C@]3(C)[C@H](CC=C4[C@@H]5[C@@H](C)[C@H](C)CC[C@]5(C(=O)N5CCN(C(=O)c6ccccc6-c6c7ccc(=[N+](C)C)cc-7oc7cc(N(C)C)ccc67)CC5)CC[C@]43C)[C@@]2(C)C[C@@H](OC(C)=O)[C@@H]1OC(C)=O (stereo partly drawn) [compound 6, (2α,3β,4α)-9-[2-{[4-(2,3,23-Tris(acetyloxy)-urs-12-en-28-oyl)-Piperazinyl]Carbonyl}Phenyl]-3,6-bis(Dimethylamino)-Xanthylium Chloride]	–	–	–	–	–	–	150 ± 8	230 ± 80	550 ± 60	150 ± 30	43 ± 8	700 ± 200
CCN(CC)c1ccc2c(-c3ccccc3C(=O)N3CCN(C(=O)[C@]45CC[C@@H](C)[C@H](C)[C@H]4C4=CC[C@@H]6[C@@]7(C)C[C@@H](OC(C)=O)[C@H](OC(C)=O)[C@@](C)(COC(C)=O)C7CC[C@@]6(C)[C@]4(C)CC5)CC3)c3ccc(=[N+](CC)CC)cc-3oc2c1 (stereo partly drawn) [compound 7]	–	–	–	–	–	–	27 ± 9	26 ± 9	330 ± 80	34 ± 9	5.6 ± 0.6	200 ± 100
CCCN(CCC)c1ccc2c(-c3ccccc3C(=O)N3CCN(C(=O)[C@]45CC[C@@H](C)[C@H](C)[C@H]4C4=CC[C@@H]6[C@@]7(C)C[C@@H](OC(C)=O)[C@H](OC(C)=O)[C@@](C)(COC(C)=O)C7CC[C@@]6(C)[C@]4(C)CC5)CC3)c3ccc(=[N+](CCC)CCC)cc-3oc2c1 (stereo partly drawn) [compound 8, (2α,3β,4α)-9-[2-{[4-(2,3,23-Tris(Acetyloxy)-urs-12-en-28-oyl)-Piperazinyl]Carbonyl}Phenyl]-3,6-Bis(Dipropylamino)-Xanthylium Chloride]	–	–	–	–	–	–	32 ± 3	31 ± 7	440 ± 90	34 ± 5	5.5 ± 0.5	160 ± 50
CCCCN(CCCC)c1ccc2c(-c3ccccc3C(=O)N3CCN(C(=O)[C@]45CC[C@@H](C)[C@H](C)[C@H]4C4=CC[C@@H]6[C@@]7(C)C[C@@H](OC(C)=O)[C@H](OC(C)=O)[C@@](C)(COC(C)=O)C7CC[C@@]6(C)[C@]4(C)CC5)CC3)c3ccc(=[N+](CCCC)CCCC)cc-3oc2c1 (stereo partly drawn) [compound 9, (2α,3β,4α)-9-[2-{[4-(2,3,23-Tris(Acetyloxy)-urs-12-en-28-oyl)-Piperazinyl]Carbonyl}Phenyl]-3,6-Bis(Dibutylamino)-Xanthylium Chloride]	–	–	–	–	–	–	16 ± 3	26 ± 8	400 ± 100	50 ± 10	4.9 ± 0.7	210 ± 50
CC(=O)OC[C@@]1(C)C2CC[C@]3(C)[C@H](CC=C4[C@@H]5[C@@H](C)[C@H](C)CC[C@]5(C(=O)N5CCN(C(=O)c6ccccc6C6=c7cc8c9c(c7Oc7c6cc6c%10c7CCCN%10CCC6)CCC[N+]=9CCC8)CC5)CC[C@]43C)[C@@]2(C)C[C@@H](OC(C)=O)[C@@H]1OC(C)=O (stereo partly drawn) [compound 10]	–	–	–	–	–	–	45 ± 4	50 ± 20	250 ± 50	50 ± 10	9 ± 2	220 ± 50
CC(=O)OC[C@@]1(C)C2CC[C@]3(C)[C@H](CC=C4[C@@H]5[C@@H](C)[C@H](C)CC[C@]5(C(=O)N5CCCN(C(=O)c6ccccc6-c6c7ccc(=[N+](C)C)cc-7oc7cc(N(C)C)ccc67)CC5)CC[C@]43C)[C@@]2(C)C[C@@H](OC(C)=O)[C@@H]1OC(C)=O (stereo partly drawn) [compound 11, (2α,3β,4α)-9-[2-{[4-(2α,3β,23-Tris(Acetyloxy)-urs-12-en-28-oyl)-Homopiperazinyl]Carbonyl}Phenyl]-3,6-Bis(Dimethylamino)-Xanthylium Chloride]	–	–	–	–	–	–	39 ± 3	20 ± 10	300 ± 100	28 ± 5	3.2 ± 0.4	400 ± 100
CCN(CC)c1ccc2c(-c3ccccc3C(=O)N3CCCN(C(=O)[C@]45CC[C@@H](C)[C@H](C)[C@H]4C4=CC[C@@H]6[C@@]7(C)C[C@@H](OC(C)=O)[C@H](OC(C)=O)[C@@](C)(COC(C)=O)C7CC[C@@]6(C)[C@]4(C)CC5)CC3)c3ccc(=[N+](CC)CC)cc-3oc2c1 (stereo partly drawn) [compound 12, (2α,3β,4α)-9-[2-{[4-(2α,3β,23-Tris(Acetyloxy)-urs-12-en-28-oyl)-Homopiperazinyl]Carbonyl}Phenyl]-3,6-Bis(Diethylamino)-Xanthylium Chloride]	–	–	–	–	–	–	–	5.5 ± 2.3	65 ± 26.2	7.1 ± 2.1	0.8 ± 0.1	17.7 ± 4.9
CCCN(CCC)c1ccc2c(-c3ccccc3C(=O)N3CCCN(C(=O)[C@]45CC[C@@H](C)[C@H](C)[C@H]4C4=CC[C@@H]6[C@@]7(C)C[C@@H](OC(C)=O)[C@H](OC(C)=O)[C@@](C)(COC(C)=O)C7CC[C@@]6(C)[C@]4(C)CC5)CC3)c3ccc(=[N+](CCC)CCC)cc-3oc2c1 (stereo partly drawn) [compound 13, (2α,3β,4α)-9-[2-{[4-(2α,3β,23-Tris(Acetyloxy)-urs-12-en-28-oyl)-Homopiperazinyl]Carbonyl}Phenyl]-3,6-Bis(Dipropylamino)-Xanthylium Chloride]	–	–	–	–	–	–	3.9 ± 0.6	6 ± 1	100 ± 50	10 ± 1	1.1 ± 0.1	41 ± 9
CCCCN(CCCC)c1ccc2c(-c3ccccc3C(=O)N3CCCN(C(=O)[C@]45CC[C@@H](C)[C@H](C)[C@H]4C4=CC[C@@H]6[C@@]7(C)C[C@@H](OC(C)=O)[C@H](OC(C)=O)[C@@](C)(COC(C)=O)C7CC[C@@]6(C)[C@]4(C)CC5)CC3)c3ccc(=[N+](CCCC)CCCC)cc-3oc2c1 (stereo partly drawn) [compound 14, (2α,3β,4α)-9-[2-{[4-(2α,3β,23-Tris(Acetyloxy)-urs-12-en-28-oyl)-Homopiperazinyl]Carbonyl}Phenyl]-3,6-Bis(Dibutylamino)-Xanthylium Chloride]	–	–	–	–	–	–	14 ± 1	25 ± 5	200 ± 100	49 ± 6	4.5 ± 0.4	150 ± 50
CC(=O)OC[C@@]1(C)C2CC[C@]3(C)[C@H](CC=C4[C@@H]5[C@@H](C)[C@H](C)CC[C@]5(C(=O)N5CCCN(C(=O)c6ccccc6C6=c7cc8c9c(c7Oc7c6cc6c%10c7CCCN%10CCC6)CCC[N+]=9CCC8)CC5)CC[C@]43C)[C@@]2(C)C[C@@H](OC(C)=O)[C@@H]1OC(C)=O (stereo partly drawn) [compound 15]	–	–	–	–	–	–	8 ± 1	10 ± 6	140 ± 50	19 ± 6	3.1 ± 0.5	80 ± 30
